Data published in BindingDB's records for doi:10.1016/j.ejmech.2020.112893 (China Pharmaceutical University, 2021).

Assay: Antagonist activity at PAR4 in human platelet-rich plasma assessed as inhibition of gamma-thrombin-induced platelet aggregation preincubated for 5 mins followed by gamma-thrombin stimulation

Row | IC50 | SMILES
1 | 2600 nM | CSc1nn2cc(-c3cc4ccccc4o3)nc2s1 [US9862730, Example 1]
2 | 2.1 nM | COc1cc(OCc2nc(-c3ccc(C(=O)N(C)C)cc3)sc2C)c2cc(-c3cn4nc(OC)sc4n3)oc2c1 [US9688695, 66]
